# Results taken from patent US20030087956A1, “Urea compounds as inhibitors for vla-4” (priority 2000, published 2003).
# Target: T1, integrin α4β1 (Homo sapiens, UniProt P05556+P13612)
# T1 construct: expressed on the MOLT-4 cell membrane; host or cells: MOLT-4 human T-lymphoblastic leukaemia cells
# Assay: MOLT-4 cell/Fibronectin adhesion assay
# Format: cell-based
# Details: MOLT-4 cells on fibronectin-coated plates, 2 h at 37° C., acid phosphatase readout; read-out: inhibitor of MOLT-4 cell adhesion to fibronectin (concentration at which compound is an inhibitor)
# Excerpt: MOLT-4 cells—human T-lymphoblastic leukaemia cells (European Collection of Animal Cell Cultures, Porton Down)
# Fibronectin—purified from human plasma by gelatin-sepharose affinity chromatography according to the methods described in E. Nengvall, E. Ruoslahti, Int. J. Cancer, 1977, 20, pages 1-5 and J. Forsyth et al, Methods in Enzymology, 1992, 215, pages 311-316).
# 1.1.1 MOLT-4 cell/Fibronectin adhesion assay.
# The MOLT-4 cell/fibronectin adhesion assay was used to investigate the interaction of the integrin α4-β1expressed on the MOLT-4 cell membrane with fibronectin. Polystyrene 96 well plates were coated overnight at 4° C. with fibronectin, 100 μl of 10 μg/ml in PBS. Non-specific adhesion sites were blocked by adding 100 μl BSA, 20 mg/ml. After incubating for 1 h at room temperature, the solutions were aspirated. […] Adherent cells were quantified by a colorimetric acid phosphatase assay. […] After incubation for 1 h at 37° C., 50 μl sodium hydroxide (1M) was added to each well and the absorbance 405 nm was measured on a microplate spectrophotometer. Compounds which inhibited adhesion gave a lower absorbance reading. […] Percentage inhibition was calculated with respect to total (no inhibitor) and non-specific (no fibronectin) standards on each plate.
# T1 sequence (P13612 34-1032): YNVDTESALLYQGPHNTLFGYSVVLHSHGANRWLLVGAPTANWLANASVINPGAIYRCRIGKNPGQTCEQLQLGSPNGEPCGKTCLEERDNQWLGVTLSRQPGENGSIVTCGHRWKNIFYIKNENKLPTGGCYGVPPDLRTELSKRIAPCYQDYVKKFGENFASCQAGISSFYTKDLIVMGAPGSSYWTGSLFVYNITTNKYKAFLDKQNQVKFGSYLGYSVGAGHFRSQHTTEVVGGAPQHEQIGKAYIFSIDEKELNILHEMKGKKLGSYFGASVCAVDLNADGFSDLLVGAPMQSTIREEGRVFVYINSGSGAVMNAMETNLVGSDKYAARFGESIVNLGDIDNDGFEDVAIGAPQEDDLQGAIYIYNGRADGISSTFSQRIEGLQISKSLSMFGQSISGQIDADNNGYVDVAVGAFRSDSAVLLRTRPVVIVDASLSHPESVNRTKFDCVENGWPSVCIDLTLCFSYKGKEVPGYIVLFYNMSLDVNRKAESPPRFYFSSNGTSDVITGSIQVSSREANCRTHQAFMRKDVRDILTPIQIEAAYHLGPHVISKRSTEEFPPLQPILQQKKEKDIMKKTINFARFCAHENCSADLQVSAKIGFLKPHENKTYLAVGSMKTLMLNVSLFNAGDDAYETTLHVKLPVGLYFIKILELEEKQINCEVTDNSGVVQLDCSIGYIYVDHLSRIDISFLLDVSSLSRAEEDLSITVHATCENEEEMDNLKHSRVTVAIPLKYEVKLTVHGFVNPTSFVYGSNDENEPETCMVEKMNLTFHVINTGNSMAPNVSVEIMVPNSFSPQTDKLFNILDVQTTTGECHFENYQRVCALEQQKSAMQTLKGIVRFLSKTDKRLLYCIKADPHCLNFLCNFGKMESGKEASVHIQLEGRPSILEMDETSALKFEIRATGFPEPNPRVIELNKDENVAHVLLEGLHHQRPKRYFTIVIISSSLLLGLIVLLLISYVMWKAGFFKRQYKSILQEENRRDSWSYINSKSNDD
# T1 sequence (P05556 21-798): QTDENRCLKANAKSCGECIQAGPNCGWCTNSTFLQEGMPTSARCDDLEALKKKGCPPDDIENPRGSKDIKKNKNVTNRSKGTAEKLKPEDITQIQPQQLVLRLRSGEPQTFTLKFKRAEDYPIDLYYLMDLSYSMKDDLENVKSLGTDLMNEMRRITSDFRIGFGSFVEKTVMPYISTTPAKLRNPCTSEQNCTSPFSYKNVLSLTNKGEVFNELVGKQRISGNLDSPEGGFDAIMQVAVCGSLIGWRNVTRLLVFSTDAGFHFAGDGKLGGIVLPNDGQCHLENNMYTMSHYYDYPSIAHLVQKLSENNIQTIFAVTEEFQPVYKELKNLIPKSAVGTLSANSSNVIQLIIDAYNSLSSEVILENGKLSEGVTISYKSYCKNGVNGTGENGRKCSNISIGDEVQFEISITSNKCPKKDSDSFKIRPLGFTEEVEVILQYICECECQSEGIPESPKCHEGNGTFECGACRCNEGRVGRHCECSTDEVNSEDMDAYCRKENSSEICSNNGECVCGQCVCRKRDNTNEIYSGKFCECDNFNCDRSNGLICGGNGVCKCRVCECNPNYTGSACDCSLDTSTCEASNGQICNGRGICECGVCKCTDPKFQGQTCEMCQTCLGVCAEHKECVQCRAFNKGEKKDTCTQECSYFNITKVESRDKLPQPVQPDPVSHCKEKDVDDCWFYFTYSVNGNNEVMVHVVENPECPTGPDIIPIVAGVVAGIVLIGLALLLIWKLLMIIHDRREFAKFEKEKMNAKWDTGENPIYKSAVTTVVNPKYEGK
row,IC50,Compound
1,87 nM,Cc1ccccc1NC(=O)Nc1ccc(CC(=O)Nc2ccc(OCCN3CCCCC3)c(OCCCC(=O)O)c2)cc1 [Compound 1]
2,84 nM,Cc1ccccc1NC(=O)Nc1ccc(CC(=O)Nc2ccc(OCCCN3CCCC3)c(OCCCC(=O)O)c2)cc1 [Compound 2]
